These results are taken from patent US20140038950A1, “PLANT TREATMENT” (priority 2012, published 2014).

Data set [1] in a line: Direct trunk injection, phytotoxicity. It counts as in vivo. The following applies: movement into xylem vessels. From the text:
For direct trunk injections, the azoxystrobin fungicide is compatible with the physiology of the plants. […] Other formulations such as fluoxastrobin are not advised for direct trunk injections.

The next data set deals with common dogwood diseases. As to the kind of experiment: Drench experiments on flowering dogwoods. It counts as in vivo. Conditions: soil drench; compared with fluoxastrobin (personal experience). From the text: Evidence of how far you have to stray from my preferred formulation and application plan before the invention stops being useful (in other words, what are the boundaries of this invention). Not all strobilurins have xylem mobility only azoxystrobin and fluoxastrobin show this ability.

For `CO/C=C(/C(=O)OC)c1ccccc1Oc1cc(Oc2ccccc2C#N)ncn1` [azoxystrobin], the phytotoxicity result in data set [1] was “without phytotoxicity”. Further, the “control of common dogwood diseases” value in the data set with common dogwood diseases is recorded as “excellent season long control”.
